Calls of active or inactive are those of the source. No rule for the calls is given here.
These compounds were tested against Caspase-6 (Homo sapiens) (UniProt P55212) (assay: inhibition of CASP6 peptide cleavage – biochemical, VEID-R110 fluorescence, cherry-pick, dose response (AID 720632)). Settings: caspase-6, VEID-R110 fluorogenic substrate; at 26 µM (top of the series).
Caspase-6 (Homo sapiens), sequence (P55212 24-179 limits assumed): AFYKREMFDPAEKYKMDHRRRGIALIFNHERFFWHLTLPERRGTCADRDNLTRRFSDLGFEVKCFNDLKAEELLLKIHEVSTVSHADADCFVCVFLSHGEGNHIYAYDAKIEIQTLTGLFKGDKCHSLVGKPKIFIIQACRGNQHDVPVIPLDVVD
Caspase-6 (Homo sapiens), sequence (P55212 194-293 limits assumed): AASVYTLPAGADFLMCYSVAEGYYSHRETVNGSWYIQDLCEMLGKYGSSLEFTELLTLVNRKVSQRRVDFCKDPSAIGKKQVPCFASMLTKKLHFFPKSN

Activity change, negative = inhibition, inactive:
CCCC(=O)Nc1ccc2c(c1)OC[C@H](C)NC[C@H](C)[C@H](OC)CN(C)C2=O
CC(OC(=O)c1n[nH]c2ccccc12)C(=O)Nc1ccccc1[N+](=O)[O-] (configuration not stated)
CCOC(=O)C1(Cc2ccccc2C)CCCN(C(=O)CCc2cccnc2)C1 (configuration not stated)
Cc1cccc(C)c1OCc1nc2ccccc2[nH]1
COc1cc(CN2CCc3ccccc3C2)cc([N+](=O)[O-])c1O
CCCCN(C(=O)c1cccc(-n2cccc2)c1)c1c(N)n(CCCC)c(=O)[nH]c1=O
COc1ccc(OC)c(N(CC(=O)Nc2ccccc2)S(C)(=O)=O)c1
O=c1[nH]c2ccc(F)cc2[nH]c1=O
COc1ccccc1CN(C)C(=O)CN1CCN(CC(=O)Nc2ccccc2Cl)CC1
O=Cc1cscc1[B-](F)(F)F
N[C@@H](Cc1cc(I)c(O)c(I)c1)C(=O)O
NN1C(=O)/C(=C2/Sc3ccccc3N2CCCS(=O)(=O)O)SC1=S
Cc1ccc([N+](=O)[O-])cc1S(=O)(=O)Nc1ccc(C(=O)N2CCN(C(=O)c3ccco3)CC2)cc1
Cc1ccc(C)c(S(=O)(=O)N2CCN(C(C)C(=O)Nc3ccccc3-c3ccccc3)CC2)c1 (configuration not stated)
CC(C)C(=O)N1CCN(c2ccccc2NC(=O)c2cccc3ccccc23)CC1
N#CC1C(=O)Nc2cccnc21 (configuration not stated)
COc1ccc(-n2c(NNC(C)=O)nc3sc4c(c3c2=O)CCCC4)cc1
COc1cccc(C(=O)N2CCN(Cc3ccc(OC)cc3OC)CC2)c1
O=C(CCCn1c(=S)[nH]c2cc3c(cc2c1=O)OCO3)N1CCN(C2CCCCC2)CC1
Cc1nc2ccc(NC(=O)CCC3CCCC3)cc2s1
O=C(c1cccc(S(=O)(=O)N2CCCCCC2)c1)N1CCN(c2ccccc2F)CC1
O=C([C@H]1[C@H](CO)[C@H]2Cn3c(cccc3=O)[C@H]2N1Cc1ccccn1)N1CCC(Cc2ccccc2)CC1
COc1ccccc1C(=O)Nc1ccc2c(c1)OC[C@@H](C)N(CC1CC1)C[C@@H](C)[C@@H](OC)CN(C)C2=O
CCOC(=O)c1c(NC(=O)C2CC(Cl)=CCC2C(=O)O)sc2c1CC(C)(C)OC2 (configuration not stated)
COc1ccc(C(=O)Nc2ccc3ccccc3c2)c(OC)c1
Cc1ccc(C)c(N2CCN(C(=O)CCCn3c(=S)[nH]c4cc5c(cc4c3=O)OCO5)CC2)c1
COc1cccc(/C=N/Nc2nc(C)cc(=O)[nH]2)c1OC
COc1ccc2c(C#N)c3ccccn3c2c1
CC1CCCCC1NS(=O)(=O)c1ccc(S(=O)(=O)N2CCN(CCC#N)CC2)cc1 (configuration not stated)
O=C(O)c1ccc2nnn(O)c2c1
COc1ccccc1CNC(=O)COC(=O)c1ccc([N+](=O)[O-])o1
CN1N=C(C(C)(C)C)CSC1=Nc1ccccc1
